The source made the active and inactive calls. The calls are words filed in the database; no cut-off is given here.
Experiments:
[1] = (§1) against A against n against t against i against p against r against o against l against i against f against e against r against a against t against i against v against e against a against c against t against i against v against i against t against y against a against g against a against i against n against s against t against h against u against m against a against n against K against 5 against 6 against 2 against c against e against l against l against s against a against s against s against e against s against s against e against d against a against s against r against e against d against u against c against t against i against o against n against i against n against c against e against l against l against v against i against a against b against i against l against i against t against y against m against e against a against s against u against r against e against d against a against f against t against e against r against 7 against 2 against h against r against s against b against y against M against T against T against a against s against s against a against y against; type: functional, tissue-based, Homo sapiens; details: k562
HepG2 = experiment: Antiproliferative against human HepG2 cells assessed as reduction in cell viability measured after 72 hrs by MTT assay; type: functional, cell-based; details: HepG2, 72 h
[2] = as §1, with “n against H against C” for “n against K against 5”, “H against C against T” for “K against 5 against 6”, “C against T against -” for “5 against 6 against 2”, “T against - against 8 against c” for “6 against 2 against c”; type: functional, tissue-based, Homo sapiens; details: hct-8
[3] = against A against n against t against i against p against r against o against l against i against f against e against r against a against t against i against v against e against a against c against t against i against v against i against t against y against a against g against a against i against n against s against t against h against u against m against a against n against M against D against A against - against M against B against - against 2 against 3 against 1 against c against e against l against l against s against a against s against s against e against s against s against e against d against a against s against r against e against d against u against c against t against i against o against n against i against n against c against e against l against l against v against i against a against b against i against l against i against t against y against m against e against a against s against u against r against e against d against a against f against t against e against r against 7 against 2 against h against r against s against b against y against M against T against T against a against s against s against a against y against; type: functional, tissue-based, Homo sapiens; details: mda-mb-231
[4] = against C against y against t against o against t against o against x against i against c against i against t against y against a against g against a against i against n against s against t against h against u against m against a against n against H against F against L against - against 1 against c against e against l against l against s against a against s against s against e against s against s against e against d against a against s against r against e against d against u against c against t against i against o against n against i against n against c against e against l against l against v against i against a against b against i against l against i against t against y against m against e against a against s against u against r against e against d against a against f against t against e against r against 7 against 2 against h against r against s against b against y against M against T against T against a against s against s against a against y against; type: ADME, tissue-based; details: Homo sapiens, HFL1
H22 [5] = experiment: Anti-tumor activity against mouse H22 cells allografted in ICR mice assessed as reduction in tumor weight at 6 mg/kg, iv administered every 2 days for 21 days; type: functional; details: 504 h, time 21 day
Sus scrofa [6] = organism: Sus scrofa; experiment: Induction of porcine brain tubulin polymerization assessed as induction of microtubule assembly by measuring increase in absorbance at 10 uM measured for 60 mins by fluorescence based analysis; type: tissue-based
H22 [7] = experiment: Antiproliferative activity against mouse H22 cells assessed as inhibition of cell growth by MTT assay; type: functional, cell-based
[8] = Inhibition of porcine brain tubulin polymerization assessed as inhibition of microtubule assembly by measuring decrease in absorbance measured for 60 mins by fluorescence based analysis; type: tissue-based, Sus scrofa
Sus scrofa [9] = organism: Sus scrofa; experiment: Displacement of [3H]colchicine from porcine brain tubulin at 1 uM incubated for 2 hrs by TopCount scintillation counting method relative to control; type: tissue-based
Sus scrofa [10] = organism: Sus scrofa; experiment: Displacement of [3H]colchicine from porcine brain tubulin at 5 uM incubated for 2 hrs by TopCount scintillation counting method relative to control; type: tissue-based
H22 [11] = experiment: Anti-tumor activity against mouse H22 cells allografted in ICR mice assessed as reduction in tumor weight at 30 mg/kg, iv administered daily for 21 days; type: functional; details: 504 h, time 21 day
H22 [12] = experiment: Anti-tumor activity against mouse H22 cells allografted in ICR mice assessed as reduction in tumor weight at 15 mg/kg, iv administered daily for 21 days; type: functional; details: 504 h, time 21 day
K562 [13] = experiment: Induction of cell cycle arrest in human K562 cells assessed as accumulation at G1 phase at 3 nM incubated for 48 hrs by propidium iodide/RNase staining based flow cytometry (reference value: 38.75%); type: functional
K562 [14] = experiment: Induction of cell cycle arrest in human K562 cells assessed as accumulation at S phase at 3 nM incubated for 48 hrs by propidium iodide/RNase staining based flow cytometry (reference value: 53.42%); type: functional
K562 [15] = experiment: Induction of cell cycle arrest in human K562 cells assessed as accumulation at G2/M phase at 3 nM incubated for 48 hrs by propidium iodide/RNase staining based flow cytometry (reference value: 7.83%); type: functional
K562 [16] = experiment: Induction of cell cycle arrest in human K562 cells assessed as accumulation at G1 phase at 6 nM incubated for 48 hrs by propidium iodide/RNase staining based flow cytometry (reference value: 38.75%); type: functional
K562 [17] = experiment: Induction of cell cycle arrest in human K562 cells assessed as accumulation at S phase at 6 nM incubated for 48 hrs by propidium iodide/RNase staining based flow cytometry (reference value: 53.42%); type: functional
K562 [18] = experiment: Induction of cell cycle arrest in human K562 cells assessed as accumulation at G2/M phase at 6 nM incubated for 48 hrs by propidium iodide/RNase staining based flow cytometry (reference value: 7.83%); type: functional
K562 [19] = experiment: Induction of cell cycle arrest in human K562 cells assessed as accumulation at G1 phase at 12 nM incubated for 48 hrs by propidium iodide/RNase staining based flow cytometry (reference value: 38.75%); type: functional
K562 [20] = experiment: Induction of cell cycle arrest in human K562 cells assessed as accumulation at S phase at 12 nM incubated for 48 hrs by propidium iodide/RNase staining based flow cytometry (reference value: 53.42%); type: functional
K562 [21] = experiment: Induction of cell cycle arrest in human K562 cells assessed as accumulation at G2/M phase at 12 nM incubated for 48 hrs by propidium iodide/RNase staining based flow cytometry (reference value: 7.83%); type: functional

Row | Compound | IC50 [1] [nM] | IC50 (HepG2) [nM] | IC50 [2] [nM] | IC50 [3] [nM] | IC50 [4] [nM] | also measured
1 | C=C(c1cc(OC)nc(OC)c1)c1ccc2[nH]ccc2c1 | > 1000 | – | – | – | – | –
2 | C=C(c1cc(OC)nc(OC)c1)c1c[nH]c2cc(OC)ccc12 | > 1000 | – | – | – | – | –
3 | C=C(c1cc(OC)nc(OC)c1)c1ccc2c(c1)OCO2 | > 1000 | – | – | – | – | –
4 | C=C(c1cc(C)nc(C)c1)c1ccc2c(ccn2C)c1 | 21 | 30 | 31 | 34 | 176 | –
5 | CC(=O)O[C@H]1C(=O)[C@@]2(C)[C@H]([C@H](OC(=O)c3ccccc3)[C@]3(O)C[C@H](OC(=O)[C@H](O)[C@@H](NC(=O)c4ccccc4)c4ccccc4)C(C)=C1C3(C)C)[C@]1(OC(C)=O)CO[C@@H]1C[C@@H]2O [PACLITAXEL] | – | – | – | – | – | inhibition in vivo at 6 mg/kg (H22 [5]): 64.3%; Activity (Sus scrofa [6]): Active; IC50 (H22 [7]): 84 nM
6 | C=C(c1cc(N2CCOCC2)nc(N2CCOCC2)c1)c1ccc(OC)c(O)c1 | > 1000 | – | – | – | – | –
7 | C=C(c1cc(OC)nc(OC)c1)c1c[nH]c2ccccc12 | > 1000 | – | – | – | – | –
8 | C=C(c1cc(N2CCCC2)nc(N2CCCC2)c1)c1ccc(OC)c(O)c1 | > 1000 | – | – | – | – | –
9 | C=C(c1cc(OC)nc(OC)c1)c1cc(OC)c(OC)c(OC)c1 | > 1000 | – | – | – | – | –
10 | C=C(c1cc(OC)nc(OC)c1)c1cn(C)c2cc(OC)ccc12 | > 1000 | – | – | – | – | –
11 | C=C(c1cc(OC)nc(OC)c1)c1cccc2[nH]ccc12 | > 1000 | – | – | – | – | –
12 | C=C(c1ccc(OC)c(O)c1)c1cc(OC)c(OC)c(OC)c1 | 6 | 10 | 10 | 12 | 86 | IC50 [8]: 2370 nM; inhibition (Sus scrofa [9]): 74%; inhibition (Sus scrofa [10]): 84.6%; inhibition in vivo at 30 mg/kg/day (H22 [11]): 66.9%; inhibition in vivo at 15 mg/kg/day (H22 [12]): 56.6%; Activity (K562 [13]): 37.19%; Activity (K562 [14]): 51.37%; Activity (K562 [15]): 11.45%; Activity (K562 [16]): 38.07%; Activity (K562 [17]): 48.36%; Activity (K562 [18]): 13.57%; Activity (K562 [19]): 36.01%; Activity (K562 [20]): 45.55%; Activity (K562 [21]): 18.44%; IC50 (H22 [7]): 8 nM
13 | C=C(c1cc(OC)nc(OC)c1)c1ccc(OC)c(O)c1 | 44 | 77 | 86 | 84 | 792 | –
14 | C=C(c1cc(OC)nc(OC)c1)c1ccc2c(ccn2C)c1 | 181 | 300 | 288 | 308 | 879 | –
15 | C=C(c1cc(C)nc(C)c1)c1ccc(OC)c(O)c1 | 12 | 27 | 31 | 29 | 86 | –
16 | C=C(c1ccncc1)c1ccc(OC)c(O)c1 | 151 | 261 | 222 | 208 | 696 | –
17 | C=C(c1cc(Cl)nc(N(C)C)c1)c1ccc(OC)c(O)c1 | 16 | 27 | 29 | 29 | 114 | –
18 | C=C(c1cc(OC)nc(OC)c1)c1cn(C)c2ccccc12 | > 1000 | – | – | – | – | –
19 | C=C(c1cc(OC)nc(OC)c1)c1cccc2c1ccn2C | > 1000 | – | – | – | – | –
20 | C=C(c1cc(OC)nc(OC)c1)c1ccc(OC)c(OC)c1 | > 1000 | – | – | – | – | –
21 | C=C(c1cc(Cl)nc(N2CCNCC2)c1)c1ccc(OC)c(O)c1 | > 1000 | – | – | – | – | –
22 | C=C(c1ccnc(C)c1)c1ccc(OC)c(O)c1 | 24 | 31 | 32 | 31 | 189 | –

Reference: ChEMBL document CHEMBL4765299 (Eur J Med Chem, 2020)
